From US8536354B2, “Steroidal ligands and their use in gene switch modulation” (Intrexon Corporation, priority 2008, dated 2013)
Like-named read-outs stand apart in the source and are kept apart here.

Assays:
[1] = biological target: wild-type Aedes aegypti EcR (AaEcR; GAL4-EcR DEF with VP16-RXR-USP chimera) (Aedes aegypti, UniProt P49880); assay: Two-hybrid gene switch assay, luciferase reporter, wild-type AaEcR, mouse NIH3T3 cells; assay type: cell-based
[2] = biological target: T1, BaEcR (GAL4-EcR DEF with VP16-RXR-USP chimera) (Bemisia tabaci, UniProt A0A6M3RDR8); assay: Two-hybrid gene switch assay, luciferase reporter, BaEcR, mouse NIH3T3 cells
T1 sequence (A0A6M3RDR8 115-530): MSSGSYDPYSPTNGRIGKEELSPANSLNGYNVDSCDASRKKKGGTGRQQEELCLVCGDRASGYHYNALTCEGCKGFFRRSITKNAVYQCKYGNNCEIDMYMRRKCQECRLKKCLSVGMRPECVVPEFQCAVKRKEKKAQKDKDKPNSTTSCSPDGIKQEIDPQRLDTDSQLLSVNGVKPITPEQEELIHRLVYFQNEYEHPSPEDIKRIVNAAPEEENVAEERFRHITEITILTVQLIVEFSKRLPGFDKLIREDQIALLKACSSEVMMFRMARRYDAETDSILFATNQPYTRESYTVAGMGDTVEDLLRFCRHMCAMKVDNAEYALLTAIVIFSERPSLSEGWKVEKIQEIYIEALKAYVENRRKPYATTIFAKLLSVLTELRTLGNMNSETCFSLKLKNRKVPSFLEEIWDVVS
T1 sequence (P28702 1-533 partner): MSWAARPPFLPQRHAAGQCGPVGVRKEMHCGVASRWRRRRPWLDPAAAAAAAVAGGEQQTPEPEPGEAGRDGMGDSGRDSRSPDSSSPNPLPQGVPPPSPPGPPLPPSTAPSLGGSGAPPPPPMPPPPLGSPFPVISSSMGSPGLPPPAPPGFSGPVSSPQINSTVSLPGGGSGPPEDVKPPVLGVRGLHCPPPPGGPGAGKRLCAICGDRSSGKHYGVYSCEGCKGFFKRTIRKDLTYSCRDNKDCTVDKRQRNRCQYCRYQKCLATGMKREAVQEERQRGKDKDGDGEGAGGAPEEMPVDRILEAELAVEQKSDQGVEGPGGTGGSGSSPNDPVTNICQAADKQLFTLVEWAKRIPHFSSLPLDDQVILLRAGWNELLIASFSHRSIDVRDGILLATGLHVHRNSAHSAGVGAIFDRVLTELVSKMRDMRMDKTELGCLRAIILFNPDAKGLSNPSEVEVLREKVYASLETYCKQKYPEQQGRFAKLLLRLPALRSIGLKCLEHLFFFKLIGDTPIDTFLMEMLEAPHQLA

[3] = biological target: T2, AmaEcR (GAL4-EcR DEF with VP16-RXR-USP chimera) (Amblyomma americanum, UniProt O44338); assay: Two-hybrid gene switch assay, luciferase reporter, AmaEcR, mouse NIH3T3 cells
T2 sequence (O44338 255-570): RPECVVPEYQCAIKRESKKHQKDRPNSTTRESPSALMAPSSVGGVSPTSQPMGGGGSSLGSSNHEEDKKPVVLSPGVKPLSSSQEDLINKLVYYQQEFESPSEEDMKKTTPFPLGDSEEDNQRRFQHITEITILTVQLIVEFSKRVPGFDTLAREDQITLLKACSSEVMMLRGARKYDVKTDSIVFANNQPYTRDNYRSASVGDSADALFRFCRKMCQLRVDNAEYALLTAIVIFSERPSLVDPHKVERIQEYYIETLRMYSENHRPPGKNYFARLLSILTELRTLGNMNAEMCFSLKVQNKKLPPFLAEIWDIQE
T2 sequence (P28702 1-533 partner): T1 sequence (P28702 1-533 partner)

[4] = biological target: T3, TmEcR (GAL4-EcR DEF with VP16-RXR partner) (Tenebrio molitor, UniProt O02035); assay: Two-hybrid gene switch assay, luciferase reporter, TmEcR, mouse NIH3T3 cells
T3 sequence (O02035 194-491): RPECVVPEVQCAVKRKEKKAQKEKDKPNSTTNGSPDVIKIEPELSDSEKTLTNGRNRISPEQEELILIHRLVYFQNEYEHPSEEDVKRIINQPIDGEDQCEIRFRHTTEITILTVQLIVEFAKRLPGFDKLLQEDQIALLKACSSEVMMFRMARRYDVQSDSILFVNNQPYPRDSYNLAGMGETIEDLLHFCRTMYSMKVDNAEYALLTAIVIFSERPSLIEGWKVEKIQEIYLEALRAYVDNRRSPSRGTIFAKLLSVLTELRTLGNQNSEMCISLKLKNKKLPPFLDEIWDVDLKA
T3 sequence (P28704 1-520 partner): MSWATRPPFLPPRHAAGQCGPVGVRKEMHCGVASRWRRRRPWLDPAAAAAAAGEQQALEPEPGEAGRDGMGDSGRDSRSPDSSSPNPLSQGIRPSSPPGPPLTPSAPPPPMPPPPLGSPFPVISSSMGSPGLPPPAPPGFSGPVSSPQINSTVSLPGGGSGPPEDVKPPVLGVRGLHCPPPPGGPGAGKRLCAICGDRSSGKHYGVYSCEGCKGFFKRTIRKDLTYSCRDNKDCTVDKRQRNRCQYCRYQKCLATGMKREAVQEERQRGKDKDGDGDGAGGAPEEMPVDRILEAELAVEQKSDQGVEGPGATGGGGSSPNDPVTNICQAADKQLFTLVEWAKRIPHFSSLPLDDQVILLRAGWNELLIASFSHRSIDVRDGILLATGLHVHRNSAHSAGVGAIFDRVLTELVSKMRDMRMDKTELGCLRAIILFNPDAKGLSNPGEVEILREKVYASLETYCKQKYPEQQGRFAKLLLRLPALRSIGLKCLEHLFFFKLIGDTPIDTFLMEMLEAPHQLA

[5] = biological target: wild-type Drosophila melanogaster EcR (DmEcR; GAL4-EcR DEF with VP16-RXR-USP chimera) (Drosophila melanogaster, UniProt P34021); assay: Two-hybrid gene switch assay, luciferase reporter, wild-type DmEcR, mouse NIH3T3 cells; assay type: cell-based
Sequence of wild-type Drosophila melanogaster EcR (DmEcR; GAL4-EcR DEF with VP16-RXR-USP chimera) (P34021 with tags, fused parts or gaps limits assumed): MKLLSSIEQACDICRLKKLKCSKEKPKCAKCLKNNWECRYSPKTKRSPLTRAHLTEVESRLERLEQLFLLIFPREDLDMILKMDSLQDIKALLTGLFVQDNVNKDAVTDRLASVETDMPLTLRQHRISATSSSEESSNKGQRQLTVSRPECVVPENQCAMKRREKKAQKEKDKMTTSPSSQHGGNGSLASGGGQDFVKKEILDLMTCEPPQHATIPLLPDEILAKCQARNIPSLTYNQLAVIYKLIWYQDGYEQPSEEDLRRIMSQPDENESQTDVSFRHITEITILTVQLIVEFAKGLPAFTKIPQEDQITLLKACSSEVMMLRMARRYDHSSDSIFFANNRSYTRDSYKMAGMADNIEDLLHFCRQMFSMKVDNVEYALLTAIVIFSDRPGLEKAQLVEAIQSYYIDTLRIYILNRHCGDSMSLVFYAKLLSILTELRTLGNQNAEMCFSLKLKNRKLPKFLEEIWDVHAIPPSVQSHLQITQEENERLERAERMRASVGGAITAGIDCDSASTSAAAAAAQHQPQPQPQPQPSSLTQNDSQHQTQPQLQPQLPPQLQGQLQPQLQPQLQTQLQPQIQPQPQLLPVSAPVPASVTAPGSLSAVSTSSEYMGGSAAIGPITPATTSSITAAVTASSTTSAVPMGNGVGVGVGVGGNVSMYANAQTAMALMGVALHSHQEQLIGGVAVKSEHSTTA

[6] = tested on: NcEcR (GAL4-EcR DEF with VP16-RXR partner); assay: Two-hybrid gene switch assay, luciferase reporter, NcEcR, mouse NIH3T3 cells
[7] = biological target: T4, wild-type CfEcR (GAL4-CfEcR-DEF with VP16-RXR-USP chimera) (Choristoneura fumiferana, UniProt O77255); assay: Two-hybrid gene switch assay, luciferase reporter, wild-type CfEcR, mouse NIH3T3 cells
T4 sequence (O77255 219-541): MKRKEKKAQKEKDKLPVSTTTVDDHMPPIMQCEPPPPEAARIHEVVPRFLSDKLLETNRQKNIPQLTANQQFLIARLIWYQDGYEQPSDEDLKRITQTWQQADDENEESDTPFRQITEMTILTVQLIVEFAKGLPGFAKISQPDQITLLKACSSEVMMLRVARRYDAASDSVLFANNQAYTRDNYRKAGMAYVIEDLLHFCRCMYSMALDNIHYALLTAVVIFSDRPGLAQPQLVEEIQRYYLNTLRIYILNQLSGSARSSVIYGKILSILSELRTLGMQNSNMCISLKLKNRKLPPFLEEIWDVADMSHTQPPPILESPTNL
T4 sequence (P28702 1-533 partner): T1 sequence (P28702 1-533 partner)

[8] = biological target: T5, MsEcR (GAL4-EcR DEF with VP16-RXR-USP chimera) (Manduca sexta, UniProt P49883); assay: Two-hybrid gene switch assay, luciferase reporter, MsEcR, mouse NIH3T3 cells
T5 sequence (P49883 1-556): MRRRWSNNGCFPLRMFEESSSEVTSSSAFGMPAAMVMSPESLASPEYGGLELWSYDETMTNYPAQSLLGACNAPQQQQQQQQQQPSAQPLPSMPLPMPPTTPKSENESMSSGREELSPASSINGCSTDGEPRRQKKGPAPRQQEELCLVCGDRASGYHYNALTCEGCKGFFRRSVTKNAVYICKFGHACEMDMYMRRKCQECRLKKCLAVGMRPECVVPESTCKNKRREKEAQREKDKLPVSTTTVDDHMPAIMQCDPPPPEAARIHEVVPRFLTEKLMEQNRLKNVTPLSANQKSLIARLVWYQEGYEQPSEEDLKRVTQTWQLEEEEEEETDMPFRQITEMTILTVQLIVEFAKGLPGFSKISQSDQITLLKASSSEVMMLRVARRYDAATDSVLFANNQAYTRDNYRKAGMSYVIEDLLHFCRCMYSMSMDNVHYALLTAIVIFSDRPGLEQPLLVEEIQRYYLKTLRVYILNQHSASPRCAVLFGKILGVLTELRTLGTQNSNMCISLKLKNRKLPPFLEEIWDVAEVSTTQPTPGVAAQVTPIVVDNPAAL
T5 sequence (P28702 1-533 partner): T1 sequence (P28702 1-533 partner)

[9] = biological target: BmEcR (GAL4-EcR DEF with VP16-RXR-USP chimera) (Bombyx mori, UniProt P49881); assay: Two-hybrid gene switch assay, luciferase reporter, BmEcR, mouse NIH3T3 cells; assay type: cell-based
Sequence of BmEcR (GAL4-EcR DEF with VP16-RXR-USP chimera) (P49881 other isoform, or with tags, fused parts or gaps, change not shown): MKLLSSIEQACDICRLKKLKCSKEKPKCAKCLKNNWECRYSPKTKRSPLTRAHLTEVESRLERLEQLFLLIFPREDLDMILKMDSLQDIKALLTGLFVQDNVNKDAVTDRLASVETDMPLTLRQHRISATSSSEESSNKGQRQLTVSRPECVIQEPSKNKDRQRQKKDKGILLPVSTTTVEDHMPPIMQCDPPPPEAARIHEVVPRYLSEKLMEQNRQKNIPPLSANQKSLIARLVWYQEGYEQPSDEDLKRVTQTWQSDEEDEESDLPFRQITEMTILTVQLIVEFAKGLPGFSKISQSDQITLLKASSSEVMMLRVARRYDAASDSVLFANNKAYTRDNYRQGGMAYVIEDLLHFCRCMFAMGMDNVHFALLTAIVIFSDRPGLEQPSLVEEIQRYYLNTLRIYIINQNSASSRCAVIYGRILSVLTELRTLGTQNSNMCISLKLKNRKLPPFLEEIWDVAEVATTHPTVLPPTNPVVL

[10] = FIG. 16, GAL4-EcR (DEF) / VP16-RXR-USP chimera, read-out: EC50
[11] = EC50, FIG. 14A/14B, GAL4-EcR(DEF) with VP16-RXR-USP chimera
[12] = EC50, FIG. 16, GAL4-EcR (DEF) / VP16-RXR-USP chimera
[13] = EC50, FIG. 14A/14B, GAL4-EcR(DEF)
[14] = EC50, FIG. 13A/13B, GAL4-EcR(DEF) with VP16-RXR-USP chimera
[15] = FIG. 14A/14B, GAL4-EcR(DEF) with VP16-RXR-USP chimera, read-out: EC50
[16] = EC50, FIG. 15, GAL4-EcR (DEF) / VP16-RXR-USP chimera

Sequence of wild-type Aedes aegypti EcR (AaEcR; GAL4-EcR DEF with VP16-RXR-USP chimera) (P49880 with tags, fused parts or gaps limits assumed, change not shown): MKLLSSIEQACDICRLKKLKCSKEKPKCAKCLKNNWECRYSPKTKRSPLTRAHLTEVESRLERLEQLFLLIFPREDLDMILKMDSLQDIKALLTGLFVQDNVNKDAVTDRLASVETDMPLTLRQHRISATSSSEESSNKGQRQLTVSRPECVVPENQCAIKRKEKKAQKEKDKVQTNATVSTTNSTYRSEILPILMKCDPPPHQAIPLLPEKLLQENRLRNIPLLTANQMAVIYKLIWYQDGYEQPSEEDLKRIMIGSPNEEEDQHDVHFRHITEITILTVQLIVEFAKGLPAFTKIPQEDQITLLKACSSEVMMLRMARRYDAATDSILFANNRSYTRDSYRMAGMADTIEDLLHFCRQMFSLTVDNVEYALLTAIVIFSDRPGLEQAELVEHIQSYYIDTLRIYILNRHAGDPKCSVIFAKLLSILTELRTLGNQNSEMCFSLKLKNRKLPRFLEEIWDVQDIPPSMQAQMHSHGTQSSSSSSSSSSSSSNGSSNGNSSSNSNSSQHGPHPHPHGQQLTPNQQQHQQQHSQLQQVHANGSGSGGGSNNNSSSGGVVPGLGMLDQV

Structure (SMILES)	EC50 [1, 10] [µM]	EC50 [2, 11] [µM]	EC50 [2, 12] [µM]	EC50 [3, 12] [µM]	EC50 [4, 13] [µM]	EC50 ([6]; FIG. 14A/14B, GAL4-EcR(DEF)) [µM]	EC50 [5, 11] [µM]	EC50 [7] [µM]	EC50 [8, 14] [µM]	EC50 ([9]; read-out: EC50) [µM]	EC50 [1, 15] [µM]	EC50 [3, 11] [µM]	also measured
CC(C)(O)CC[C@@H](O)[C@](C)(O)[C@H]1CC[C@@]2(O)C3=CC(=O)[C@@H]4C[C@@H](O)[C@@H](O)C[C@]4(C)[C@H]3CC[C@]12C [Compound 20-hydroxyecdysone]	4.38	~5	5.35	~0.8	~15	~0.8							EC50 [5, 10]: ~15 µM; EC50 ([6]; FIG. 16, GAL4-EcR (DEF)): 0.6 µM
C=C(C)CC[C@@H](O)[C@](C)(O)[C@H]1CC[C@@]2(O)C3=CC(=O)[C@@H]4C[C@@H](O)[C@@H](O)C[C@]4(C)[C@H]3CC[C@]12C [listing 1 of 2 here]		0.382			1.4	0.006	0.912						EC50 [1, 11]: 0.024 µM
C=C(C)CC[C@@H](O)[C@](C)(O)[C@H]1CC[C@@]2(O)C3=CC(=O)[C@@H]4C[C@@H](O)[C@@H](O)C[C@]4(C)[C@H]3CC[C@]12C [listing 2 of 2 here]								~12	0.608	6.28			
CC(C)(O)CCC(O)C(C)(O)C1CCC2(O)C3=CC(=O)C4CC(O)CCC4(C)C3CCC12C (stereo not drawn) [Compound 2-deoxy-20-hydroxyecdysone]		~15			~20		> 33	> 33	~10	> 33	~5	~5	
CC(C)(O)CC[C@@H](O)[C@](C)(O)[C@H]1CC[C@@]2(O)C3=CC(=O)[C@H]4C[C@@H](O)[C@@H](O)C[C@]4(C)[C@H]3CC[C@]12C [(5a-H)-20-hydroxyecdysone]		> 33			> 33	~15			> 33		~20	> 33	EC50 ([9]; FIG. 13A/13B, BmEcR, GAL4-EcR(DEF) with VP16-RXR-USP chimera, read-out: EC50): > 33 µM; EC50 [5, 15]: > 33 µM
CC(C)(O)CCCC(C)(O)C1CCC2(O)C3=CC(=O)C4CC(O)C(O)CC4(C)C3CCC12C (stereo not drawn)		~10			~20	3.04	~20	> 33	~15			~10	EC50 [9]: > 33 µM
CC(C)(O)CC[C@H]1OC(C)(C)O[C@]1(C)[C@H]1CC[C@@]2(O)C3=CC(=O)[C@@H]4C[C@@H](O)[C@@H](O)C[C@]4(C)[C@H]3CC[C@]12C [20-hydroxyecdysone-20,22-acetonide]	2.38	> 33	8.57	~1	> 33	~10	> 33		~12		~12	~20	EC50 [8, 16]: ~12 µM; EC50 ([4]; EC50, FIG. 16, GAL4-EcR (DEF)): ~3 µM; EC50 [5, 12]: ~12 µM
CC(=O)C1CCC2(O)C3=CC(=O)C4CC(O)C(O)CC4(C)C3CCC12C (stereo not drawn) [poststerone]	10.5	> 33	> 33	~10	> 33		> 33		> 33	> 33	> 33	> 33	EC50 [8, 16]: > 33 µM; EC50 ([4]; EC50, FIG. 16, GAL4-EcR (DEF)): > 33 µM; EC50 [5, 12]: > 33 µM; EC50 ([6]; FIG. 16, GAL4-EcR (DEF)): ~10 µM
CC(C)CC[C@@H](O)[C@](C)(O)[C@H]1CC[C@@]2(O)C3=CC(=O)[C@]4(O)C[C@@H](O)[C@@H](O)C[C@]4(C)[C@H]3[C@H](O)C[C@]12C [Mur A, muristerone A, reference compound]		0.829			~5		0.058		0.66			0.128	EC50 [1, 11]: 0.023 µM; EC50 ([9]; EC50, FIG. 13A/13B, BmEcR, GAL4-EcR(DEF) with VP16-RXR-USP chimera): 2.98 µM; EC50 ([5]; EC50, FIG. 4C): 0.112 µM
